For the test, the target named is T1, human mAChR M4 (Homo sapiens, UniProt P08173).
T1 construct: expressed in transfected cells
T1 sequence (P08173 1-479): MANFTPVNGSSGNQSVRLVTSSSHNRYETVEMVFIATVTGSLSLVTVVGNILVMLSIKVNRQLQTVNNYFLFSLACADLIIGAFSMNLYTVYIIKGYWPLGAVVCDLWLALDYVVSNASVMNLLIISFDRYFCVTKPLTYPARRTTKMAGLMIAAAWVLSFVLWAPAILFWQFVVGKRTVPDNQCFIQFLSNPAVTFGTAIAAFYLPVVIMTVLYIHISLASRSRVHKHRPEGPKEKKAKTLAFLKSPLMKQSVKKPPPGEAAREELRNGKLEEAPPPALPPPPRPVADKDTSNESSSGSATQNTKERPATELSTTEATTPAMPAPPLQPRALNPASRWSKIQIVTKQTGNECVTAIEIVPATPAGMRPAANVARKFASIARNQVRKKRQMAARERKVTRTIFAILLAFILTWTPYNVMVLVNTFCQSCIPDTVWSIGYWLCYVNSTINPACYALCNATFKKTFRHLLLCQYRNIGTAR
Description: mAChR M4 cell-based functional assay (calcium mobilization, CHO-K1 hM4-Gqi5 cells). The following applies: for EC50: positive allosteric modulator activity, increase in the EC20 acetylcholine response, CHO-K1 hM4-Gqi5 cells, read-out: Human M4 EC50. In a few lines:
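Fluorescent calcium read-out (Fluo-4 AM, FDSS, 1 Hz) in hM4-Gqi5 CHO-K1 cells, 11-point 1:3 compound series. Agonism scored on compound addition, PAM activity as increase of the 144 s EC20 acetylcholine response, antagonism as decrease of the 230 s EC80 response; four-parameter logistic fits give EC50 and Emax.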
For orientation: A change in cytosolic calcium serves as a functional read-out for many receptors and channels.

Where [1] appears, read: CHO-K1, % ACh maximum at 30 μM, human M4.

Structures are written as SMILES.

As to `Cc1cc(C(=O)N2CC(F)C2)nnc1N1CCc2ncc(-n3cccn3)cc2C1` [Example 568, (6-(3-(1H-pyrazol-1-yl)-7,8-dihydro-1,6-naphthyridin-6(5H)-yl)-5-methylpyridazin-3-yl)(3-fluoroazetidin-1-yl)methanone], the EC50 worked out at 161 nM. Also, under setting [1], the Emax at 30 µM turned out to be 75%.

`Cc1cc(C#N)nnc1N1CCc2ncc(N3CCCn4nccc43)cc2C1` [Example 360, 6-(3-(6,7-dihydropyrazolo[1,5-a]pyrimidin-4(5H)-yl)-7,8-dihydro-1,6-naphthyridin-6(5H)-yl)-5-methylpyridazine-3-carbonitrile]: the EC50 came to 88 nM. Besides, under setting [1], the maximum response (Emax) at 30 µM came out at 129%.

As to `Cc1cc(C(=O)NCc2cncs2)cnc1N1CCc2ncc(C(F)(F)F)cc2C1` [Example 443, 5-methyl-N-(thiazol-5-ylmethyl)-6-(3-(trifluoromethyl)-7,8-dihydro-1,6-naphthyridin-6(5H)-yl)nicotinamide], the half-maximal effective concentration (EC50) was 157 nM. Moreover, the Emax at 30 µM under setting [1] was 107%.

For `Cc1c(C#N)nnc(N2CCc3ncc(-c4cccnc4)cc3C2)c1C` [compound 47, 4,5-dimethyl-6-[3-(3-pyridyl)-7,8-dihydro-5H-1,6-naphthyridin-6-yl]pyridazine-3-carbonitrile], the concentration for a half-maximal effect (EC50) is 136 nM. Also, the Emax at 30 µM under setting [1] was found to be 81%.

For the compound `Cc1cc(F)c(F)cc1-c1cnc2c(c1)CN(c1nnc(C#N)cc1C)CC2` [Example 596, 6-(3-(4,5-difluoro-2-methylphenyl)-7,8-dihydro-1,6-naphthyridin-6(5H)-yl)-5-methylpyridazine-3-carbonitrile], the EC50 came to 1880 nM. The Emax at 30 µM under setting [1] came to 54%.

In the case of `Cc1cc(C(=O)N2CCc3cnccc3C2)nnc1N1CCc2ncc(C(F)(F)F)cc2C1` [Example 498, (3,4-dihydro-2,6-naphthyridin-2(1H)-yl)(5-methyl-6-(3-(trifluoromethyl)-7,8-dihydro-1,6-naphthyridin-6(5H)-yl)pyridazin-3-yl)methanone], the EC50 came to 3170 nM. Further, the Emax at 30 µM under setting [1] is 85%.

Regarding `Cc1nc(Cl)c(C)c(N2CCc3ncc(-c4cnc(C)s4)cc3C2)n1` [compound 199, 5-[6-(6-chloro-2,5-dimethyl-pyrimidin-4-yl)-7,8-dihydro-5H-1,6-naphthyridin-3-yl]-2-methyl-thiazole], the EC50 turned out to be 140 nM. Moreover, the maximum response (Emax) at 30 µM under setting [1] is 81%.

For the compound `Cc1cc(-c2cnc3c(c2)CN(c2nnc(C#N)c(C)c2C)CC3)ccn1` [Example 12], the EC50 was 273 nM. Further, the Emax under setting [1] came to 67%.

Consider `COCc1nc(Cl)c(C)c(N2CCc3ncc(-c4cncs4)cc3C2)n1` [compound 217, 5-(6-(6-chloro-2-(methoxymethyl)-5-methylpyrimidin-4-yl)-5,6,7,8-tetrahydro-1,6-naphthyridin-3-yl)thiazole], for which the EC50 amounted to 539 nM. Also, the Emax at 30 µM under setting [1] turned out to be 96%.

As to `Cc1cc(C#N)cnc1N1CCc2ncc(-c3ccnc(C#N)c3)cc2C1` [Example 336, 4-(6-(5-cyano-3-methylpyridin-2-yl)-5,6,7,8-tetrahydro-1,6-naphthyridin-3-yl)picolinonitrile], the half-maximal effective concentration (EC50) was 258 nM. For the same compound, the maximum response (Emax) at 30 µM under setting [1] was determined as 49%.

As for `[2H]C1([2H])Cc2ncc(Nc3cc(C)ncc3F)cc2C([2H])([2H])N1c1ncc(C#N)cc1C` [Example 601, 6-(3-((5-fluoro-2-methylpyridin-4-yl)amino)-7,8-dihydro-1,6-naphthyridin-6(5H)-yl-5,5,7,7-d4)-5-methylnicotinonitrile], the EC50 was determined as 7 nM. The Emax at 30 µM under setting [1] amounted to 95%.

On to `Cc1cc(C(=O)N2CC(C)(O)C2)nnc1N1CCc2ncc(-n3cccn3)cc2C1` [Example 534, (6-(3-(1H-pyrazol-1-yl)-7,8-dihydro-1,6-naphthyridin-6(5H)-yl)-5-methylpyridazin-3-yl)(3-hydroxy-3-methylazetidin-1-yl)methanone], for which the EC50 came out at 322 nM. For the same compound, under setting [1], the Emax at 30 µM came out at 88%.

The term Emax denotes the size of the effect at its maximum, as opposed to the concentration needed. Broadly, the EC50 is the concentration giving half of the maximal effect.

Values taken from patent US20250230155A1 (Vanderbilt University, priority 2021, published 2025).
